Experimental data published in patent US20050143463A1, “Method of inhibiting angiogenesis” (THE QUEEN ELIZABETH HOSPITAL RESEARCH FOUNDATION INC., priority 2002, published 2005).
Like-named read-outs stand apart in the source and are kept apart here.

Columns and labels:
[1] = test system: corneal neovascularisation; assay: Mouse corneal vascularisation model (cornea scratched and infected with Pseudomonas aeruginosa 6294); type: in vivo, BALB/c mice; settings: for vascularisation of the cornea compared to Groups 1 and 2 (photomicrographs): Group 3, 200 μmol/10 μL topical; for Percentage of animals showing vascularisation in the infected eye / animals showing vascularisation in the infected eye (number/total): 12-MTA 200 μmol/10 μL topical, every second day from day 4; for corneal neovascularisation in mice (in words): mouse, in vivo
Source text: To induce neovascularisation in the cornea of mice, cornea were scratched and infected with Pseudomonas aeruginosa as essentially described in Cole, N., Willcox, M. D. P., Fleiszig, S. M. J., Stapleton, F., Bao, S., Tout, S., Husband, A. J. (1998) “Different strains of Pseudomonas aeruginosa isolated from ocular infections or inflammation display distinct corneal pathologies in an animal model.” Curr. Eye Res., 17:730-735.
Briefly, stock cultures of P. aeruginosa 6294 stored in 30% glycerol at −70° C. were inoculated into 10 mL of tryptone soya broth (Oxoid Ltd, Sydney, Australia). Cultures were prepared as previously described (Cole et al. (1998) Curr. Eye Res. 17:730-735) and suspended in phosphate buffered saline (PBS) to a concentration of 4×10^8 cfu (colony forming units)/ml. Bacterial concentration was adjusted turbidimetrically and the dose confirmed retrospectively by viable counts.
Inbred 6-8 week old BALB/c mice were anaesthetised with Averin (125 mg/kg, intraperitoneally) and the corneal surfaces of the eyes were incised with a sterile 27 gauge needle. 5 μL of the bacterial suspension (2.0×10^6 cfu) of strain 6294 was pipetted directly onto the wounded cornea of the left eye only. The right eye of each animal served as a control and was scratched but not infected. A minimum of eight mice per treatment group were used.
12-MTA at 200 μmol/10 μL was prepared as an emulsion in unpreserved paraffin and lanolin ophthalmic ointment base (Polyvisc, Alcon, Belgium) for topical application. Animals were divided into three treatment groups: Group 1 received no treatment; Group 2 received 10 μL of vehicle topically to the cornea per treatment to both the challenged and scratch control eye; and Group 3 received 10 μL of the 12-MTA as described above to both the challenged and scratch control eyes. The treatment schedule was begun four days after challenge and then every second day until the termination of the experiment 14 days post-challenge.
Mice were examined prior to bacterial challenge, immediately subsequent to bacterial challenge and 7 and 14 days post-challenge by a masked observer. The animals were anaesthetised for examination as described above and the corneas were examined at 48× magnification under white light using an FS2 photo slit-lamp biomicroscope (Topcon Corporation, Tokyo, Japan). At 7 and 14 days post-challenge, following the white light examination, 1% sodium fluorescein was instilled and the corneas viewed under UV light. Grades of severity of corneal damage were made and measurement of the extent and incursion of vessels into the central cornea were made.
Measurements were examined for significance using non-parametric Kruskal-Wallis and Mann Whitney U analysis.
For histological examination of corneas, mice were sacrificed at 14 days post-challenge. The eyes were immediately enucleated, fixed in neutral buffered formalin and embedded in paraffin. […] sections were cut and stained with haematoxylin and eosin for histopathological examination.

[2] = test system: Human umbilical vein endothelial cells (HUVEC); assay: HUVEC proliferation assay (tritiated thymidine uptake); type: cell-based; settings: for inhibition of HUVEC proliferation in vitro, dose dependent (in words): dose dependent manner
Protocol: Human umbilical vein endothelial cells (HUVEC) were seeded in 96-well flat bottomed tissue culture plates at a density of 2.5-5×10^4 cells/well and treated with various dilutions of agents. Cells were cultured in RPMI medium containing 20% FCS, Penicillin/Streptomycin in a 5% CO2 atmosphere at 37° C. After 24 to 48 hours of incubation, cells were pulsed with 1 μCi of tritiated thymidine for 6 hours. The pulsed cells were trypsinised to detach from the wells and then harvested in a TOMTEC Cell Harvester onto glass fibre filters, which were dried and immersed in scintillation fluid and counted in a Wallac Microbeta scintillation counter. The results were reported as mean cpm±SD.

Aqueous solubility = type: physicochemical
[3] = 50 μM, tritiated thymidine uptake
[4] = 100 μM, tritiated thymidine uptake
[5] = 200 μM, tritiated thymidine uptake
[6] = 400 μM, tritiated thymidine uptake
[7] = 800 μM, tritiated thymidine uptake

CCC(C)CCCCCCCCCCC(=O)O (stereo not shown) [12-MTA, 12-methyltetradecanoic acid]
effect on scratch control (uninfected) eyes ([1]; 200 μmol/10 μL topical, any time point): does not affect the cornea
blood vessel formation in the corneal stroma (histological examination) ([1]; 14 days post-challenge, Group 3): reduced blood vessel formation
vascularisation of the cornea compared to Groups 1 and 2 (photomicrographs) ([1]; Day 7): reduced vascularisation
Percentage of animals showing vascularisation in the infected eye ([1]; Day 7 post-challenge): 40%
animals showing vascularisation in the infected eye (number/total) ([1]; Day 7 post-challenge): 4/10
vascularisation of the cornea compared to Groups 1 and 2 (photomicrographs) ([1]; Day 14): reduced vascularisation
Percentage of animals showing vascularisation in the infected eye ([1]; Day 14 post-challenge): 50%
animals showing vascularisation in the infected eye (number/total) ([1]; Day 14 post-challenge): 5/10
animals with mild ocular response ([1]; Group 3, Day 14 post-challenge): 60%
animals with severe ocular response ([1]; Group 3, Day 14 post-challenge): 20%
median score of severity of corneal damage (ocular response) ([1]; Group 3, Day 14 post-challenge): 1.65 (range 0-4)
animals with a persistent epithelial defect ([1]; Group 3, first examination): 20%
animals with mild ocular response ([1]; Group 3, first examination): 50%
animals with severe ocular response ([1]; Group 3, first examination): 10%
median score of severity of corneal damage (ocular response) ([1]; Group 3, first examination (Day 7 implied, not given)): 2.1 (range 0.54)
corneal neovascularisation in mice (in words) [1]: inhibited corneal neovascularization
corneal neovascularisation in mice (in words) ([1]; listed as 12-methlytetradecanoic acid): inhibits corneal neovascularisation
% Inhibition of HUVEC proliferation ([2]; 50 μM, percentage of control cells with no added agent (Table 1)): 13.3%
Average [2, 3]: 18781.3 cpm
Sample 1 [2, 3]: 19272 cpm
Sample 2 [2, 3]: 19942 cpm
Sample 3 [2, 3]: 17130 cpm
Average [2, 4]: 17593.0 cpm
Sample 1 [2, 4]: 20367 cpm
Sample 2 [2, 4]: 16963 cpm
Sample 3 [2, 4]: 15449 cpm
Average [2, 5]: 15707.7 cpm
Sample 1 [2, 5]: 18491 cpm
Sample 2 [2, 5]: 15435 cpm
Sample 3 [2, 5]: 13197 cpm
HUVEC proliferation (in words) ([2]; 400 μM concentration, tritiated thymidine uptake): inhibited
Average [2, 6]: 12104.7 cpm
Sample 1 [2, 6]: 12558 cpm
Sample 2 [2, 6]: 13837 cpm
Sample 3 [2, 6]: 9919 cpm
microscopic examination of the cells ([2]; 800 μM): appearance of apoptotic cells
Average [2, 7]: 9.0 cpm
Sample 1 [2, 7]: 11 cpm
Sample 2 [2, 7]: 7 cpm
Sample 3 [2, 7]: 9 cpm
inhibition at 50 µM ([2]; Homo sapiens, HUVEC, 50 μM, percentage of control cells with no added agent (Table 1)): 13%
inhibition at 100 µM ([2]; Homo sapiens, HUVEC, 100 μM, percentage of control cells with no added agent (Table 1)): 18.7%
inhibition at 200 µM ([2]; Homo sapiens, HUVEC, 200 μM, percentage of control cells with no added agent (Table 1)): 27.5%
inhibition at 400 µM ([2]; Homo sapiens, HUVEC, 400 μM concentration, percentage of control cells with no added agent (Table 3), read-out: Percentage inhibition of HUVEC proliferation): 32%
inhibition at 400 µM ([2]; Homo sapiens, HUVEC, 400 μM, percentage of control cells with no added agent (Table 1), read-out: % Inhibition of HUVEC proliferation): 44.1%
inhibition at 800 µM ([2]; Homo sapiens, HUVEC, 800 μM, percentage of control cells with no added agent (Table 1)): 99%
inhibition at 100 µM ([2]; Homo sapiens, HUVEC, 24 h, 100 μM 12-MTA, 24 hours (Table 2)): 24.8%
inhibition at 200 µM ([2]; Homo sapiens, HUVEC, 24 h, 200 μM 12-MTA, 24 hours (Table 2)): 30.2%
cell viability ([2]; concentrations between 50 to 400 μM): good viability
inhibition of HUVEC proliferation in vitro, dose dependent (in words) [2]: inhibited in a dose response manner
inhibition of HUVEC proliferation in vitro, dose dependent (in words) ([2]; listed as 12-methyl tetradecanoic acid): inhibit the proliferation
aqueous solubility (Aqueous solubility): poor
